Experiment [1] deals with T1, CCK receptor (pancreas) (Rattus norvegicus, UniProt P30551).
T1 construct: The whole pancreas was dissected free of fat tissue and was homogenized; from tissue; host or cells: rat pancreas membrane homogenate
T1 sequence (P30551 1-444): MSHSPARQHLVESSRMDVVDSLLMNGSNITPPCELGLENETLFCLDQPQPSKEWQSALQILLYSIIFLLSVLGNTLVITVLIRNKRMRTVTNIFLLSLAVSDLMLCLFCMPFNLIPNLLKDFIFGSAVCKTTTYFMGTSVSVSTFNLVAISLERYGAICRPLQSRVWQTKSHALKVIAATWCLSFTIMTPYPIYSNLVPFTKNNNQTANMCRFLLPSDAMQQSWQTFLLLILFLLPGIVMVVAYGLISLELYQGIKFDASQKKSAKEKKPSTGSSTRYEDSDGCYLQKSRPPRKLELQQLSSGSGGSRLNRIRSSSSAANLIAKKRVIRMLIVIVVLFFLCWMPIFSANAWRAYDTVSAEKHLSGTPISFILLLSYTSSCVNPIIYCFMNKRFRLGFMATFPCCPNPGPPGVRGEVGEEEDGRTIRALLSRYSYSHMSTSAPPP
The experiment in a line: biochemical. In kind it is binding. To be noted: rat pancreas membranes, 50 pM 125I-CCK-8, 25°C 2 hours. Here is the method: CCK-8 sulphated was radiolabelled with ¹²⁵I-Bolton Hunter reagent (2000 Ci/mmole). Receptor binding was performed according to Chang and Lotti (Proc. Natl. Acad. Sci. 83, 4923-4926, 1986) with minor modifications.
Male Sprague-Dawley rats (150-200g) were sacrificed by decapitation. The whole pancreas was dissected free of fat tissue and was homogenized in 25 volumes of ice-cold 10 mM N-2-hydroxyethyl-piperazine-N′-2-ethane sulphonic acid (HEPES) buffer with 0.1% soya bean trypsin inhibitor (pH 7.4 at 25°C) with a Kinematica Polytron. The homogenates were centrifuged at 47,800 g for 10 min. Pellets were resuspended in 10 volumes of binding assay buffer (20mM (HEPES)), 1mM ethylene glycol-bis-(β-aminoethylether-N,N′-tetraacetic acid) (EGTA), 5mM MgCl₂, 150 mM NaCl, bacitracin 0.25 mg/ml, soya bean trypsin inhibitor 0.1 mg/ml, and bovine serum albumin 2 mg/ml pH 6.5 at 25°C) using a Teflon (trademark) homogenizer, 15 strokes at 500 rpm. The homogenate was further diluted in binding assay buffer to give a final concentration of 0.5 mg original wet weight/1 ml buffer. […] All assays were run in duplicate. The reaction mixtures were incubated at 25°C for 2 hours and the reaction terminated by rapid filtration (Brandell 24 well cell harvester) over Whatman GF/C filters, washing 3 x 4 mls with ice-cold 100 Mm NaCl. The radioactivity on the filters was counted with a LKB gamma counter.
(§1) Drug displacement studies were performed with at least 10 concentrations of compounds of Formula I and the IC₅₀ values were determined by regression analysis IC₅₀ refers to the concentration of the compound required to inhibit 50% of specific binding of ¹²⁵I-CCK-8.

Experiment [2] has as its target T2, Gastrin Receptor (Cavia porcellus, UniProt H0VZC5).
T2 sequence (H0VZC5 1-426): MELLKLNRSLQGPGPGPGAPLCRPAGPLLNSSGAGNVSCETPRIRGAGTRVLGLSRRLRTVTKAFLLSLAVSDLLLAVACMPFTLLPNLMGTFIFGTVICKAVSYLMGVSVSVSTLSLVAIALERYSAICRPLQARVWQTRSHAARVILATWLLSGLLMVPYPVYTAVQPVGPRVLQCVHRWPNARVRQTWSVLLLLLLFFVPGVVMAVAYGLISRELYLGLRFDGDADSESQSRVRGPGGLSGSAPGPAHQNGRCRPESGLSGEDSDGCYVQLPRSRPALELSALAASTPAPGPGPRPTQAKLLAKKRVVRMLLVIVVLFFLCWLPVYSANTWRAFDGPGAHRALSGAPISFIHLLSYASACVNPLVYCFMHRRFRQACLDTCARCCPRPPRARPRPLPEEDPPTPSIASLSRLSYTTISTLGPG
Nature of the experiment: Gastrin Receptor Binding in Guinea Pig Gastric Glands, 125I-gastrin. Also noted: from tissue; host or cells: isolated guinea pig gastric mucosal glands. To be noted: 0.1 nM 125I-gastrin, 25°C 30 minutes. Here is the method:
Gastrin antagonist activity of compounds of Formula I was determined using the following assay.
Guinea pig gastric mucosal glands were prepared by the procedure of Chang et. al., Science, 230, 177-179 (1985) with slight modifications. […] The tissues were passed twice through a 5 ml syringe to liberate the gastric glands, and then filtered through Nitex (trademark) #202 gauge nylon mesh. The filtered glands were centrifuged at 272 g for 5 minutes and washed twice by resuspension in 25 ml buffer and centrifugation.
The washed guinea pig gastric glands prepared as above were resuspended in 25 ml of standard buffer. For binding studies, to 250 µl of gastric glands, 30 µl of buffer (for total binding) or gastrin (3 µM final concentration, for nonspecific binding) or test compound and 20 µl of ¹²⁵I-gastrin (NEN, 2200 Ci/mmole, 0.1 nM final concentration) were added. All assays were run in triplicate. […] The reaction mixtures, after incubation at 25°C for 30 minutes in a shaking water bath were rapidly filtered (Brandell 24 well cell harvester) over Whatman G/F B filters presoaked in assay buffer and immediately washed further with 3 x 4 ml of 100 mM ice cold NaCl. The radioactivity on the filters was measured using a LKB gamma counter.

The target in experiment [3] is T3, CCK receptor (brain, cortex) (Cavia porcellus, UniProt H0VZC5).
T3 construct: the cortex was removed and homogenized in 25 mL ice-cold 0.32 M sucrose; from tissue; host or cells: guinea pig brain cortex P2 membrane pellet
T3 sequence (H0VZC5 1-426): T2 sequence (H0VZC5 1-426)
The experiment in a line: biochemical. To be noted: guinea pig cortex membranes, 50 pM 125I-CCK-8, 25°C 2 hours; read-out: IC50 ^125I-CCK Brain. Format: binding, guinea pig. As to the method: CCK-8 sulphated was radiolabelled and the binding was performed according to the description for the pancreas method with minor modifications.
Male Hartley guinea pigs (300-500g) were sacrificed by decapitation and the cortex was removed and homogenized in 25 mL ice-cold 0.32 M sucrose. The homogenates were centrifuged at 1000 g for 10 minutes and the resulting supernatant was recentrifuged at 20,000 g for 20 minutes. The P₂ pellet was resuspended in binding assay buffer (20mM HEPES, 5 mM MgCl₂, 0.25 mg/ml bacitracin, 1 mM EGTA pH 6.5 at 25°C), using a Teflon (trademark) homogenizer (5 strokes at 500 rpm) to give a final concentration of 10 mg original wet weight/1.2 ml buffer. […] All assays were run in duplicate. The reaction mixtures were incubated at 25°C for 2 hours and then the reaction was terminated by rapid filtration (Brandell 24 well cell harvester) on Whatman GF/C filters with 3 x 5 ml washes of cold 100 mM NaCl. The radioactivity on the filters was counted with a LKB gamma counter.
as §1

pIC50: −log10 of the molar value.

For the compound `CC(C)S(=O)(=O)NC(=O)c1cccc(NC(=O)NC2N=C(C3CCCCC3)c3ccccc3N(C)C2=O)c1` (racemic) [Example 12, N-[3(R,S)-5-Cyclohexyl-2,3-dihydro-1-methyl-2-oxo-1H-1,4-benzodiazepin-3-yl] N′-[3-(isopropylsulphonylaminocarbonyl)phenyl] urea], the figures for the pIC50 in experiment [1] and in experiment [2] were 7.91 and 8.49, respectively.

Regarding `CCCN1C(=O)C(NC(=O)Nc2cccc(C(=O)NS(C)(=O)=O)c2)N=C(C2CCCCC2)c2ccccc21` (racemic) [Example 25, N-[3(R,S)-5-Cyclohexyl-2,3-dihydro-1-propyl-2-oxo-1H-1,4-benzodiazepin-3-yl] N′-(3-(methylsulphonylaminocarbonyl)phenyl]urea], the pIC50 in experiment [1] was 6.66; in experiment [3], 8.72.

For the compound `CN1C(=O)C(NC(=O)Nc2cccc(S(=O)(=O)Nc3nccs3)c2)N=C(C2CCCCC2)c2ccccc21` (racemic) [Example 26, N-[3(R,S)-5-Cyclohexyl-2,3-dihydro-1-methyl-2-oxo-1H-1,4-benzodiazepin-3-yl] N′-[3-(thiazol-2-ylaminosulphonyl)phenyl]urea], the pIC50 in experiment [1] is 7.22; in experiment [3] it was 8.64.

Regarding `CN1C(=O)C(NC(=O)Nc2cccc(-c3nnn(C)n3)c2)N=C(C2CCCCC2)c2ccccc21` (racemic) [Example 28, N-[3(R,S)-5-Cyclohexyl-2,3-dihydro-1-methyl-2-oxo-1H-1,4-benzodiazepin-3-yl] N′-[3-(2-methyltetrazol-5-yl)phenyl]urea], the pIC50 in experiment [1] was 8.08; in experiment [3] it was 8.40.

For the compound `CCN1C(=O)C(NC(=O)Nc2cccc(C(=O)NS(C)(=O)=O)c2)N=C(C2CCCC2)c2ccccc21` (racemic) [Example 29, N-(3(R,S)-5-Cyclopentyl-2,3-dihydro-1-ethyl-2-oxo-1H-1,4-benzodiazepin-3-yl] N′-(3-(methylsulphonylaminocarbonyl)phenyl] urea], the negative-log IC50 (pIC50) is 7.66 in experiment [1] and 8.20 in experiment [3].

In the case of `CCN1C(=O)C(NC(=O)Nc2cccc(C(=O)NS(=O)(=O)C(C)C)c2)N=C(C2CCCC2)c2ccccc21` (racemic) [Example 30, N-[3(R,S)-5-Cyclopentyl-2,3-dihydro-1-ethyl-2-oxo-1H-1,4-benzodiazepin-3-yl] N′-[3-(isopropylsulphonylaminocarbonyl)phenyl] urea], the pIC50 was 6.77 in experiment [1] and 8.49 in experiment [3].

With `CN1C(=O)C(NC(=O)Nc2cccc(S(=O)(=O)NC(=O)C(C)(C)C)c2)N=C(C2CCCCC2)c2ccccc21` (racemic) [Example 32, N-(3(R,S)-5-Cyclohexyl-2,3-dihydro-1-methyl-2-oxo-1H-1,4-benzodiazepin-3-yl] N′-(3-(1,1-dimethylethylcarbonylaminosulphonyl)phenyl] urea], the pIC50 was 6.21 in experiment [1] and 8.89 in experiment [3].

Regarding `CCCN1C(=O)C(NC(=O)Nc2cccc(C(=O)NS(=O)(=O)C(C)C)c2)N=C(C2CCCC2)c2ccccc21` (racemic) [Example 36, N-[3(R,S)-5-Cyclopentyl-2,3-dihydro-1-propyl-2-oxo-1H-1,4-benzodiazepin-3-yl] N′-[3-(isopropylsulphonylaminocarbonyl)phenyl] urea], the pIC50 in experiment [1] was 5.89; in experiment [3], 8.92.

For `CCCN1C(=O)C(NC(=O)Nc2cccc(C(=O)NS(=O)(=O)C(C)(C)C)c2)N=C(C2CCCC2)c2ccccc21` (racemic) [Example 37, N-[3(R,S)-5-Cyclopentyl-2,3-dihydro-1-propyl-2-oxo-1H-1,4-benzodiazepin-3-yl] N′-[3-(1,1-dimethylethylsulphonylaminocarbonyl)phenyl] urea], the values for the negative-log IC50 (pIC50) in experiment [1] and in experiment [3] were 6.02 and 9.72, respectively.

In the case of `CC(C)S(=O)(=O)NC(=O)c1cccc(NC(=O)NC2N=C(C3CCCC3)c3ccccc3N(C)C2=O)c1` (racemic) [Example 38, N-(3(R,S)-5-Cyclopentyl-2,3-dihydro-1-methyl-2-oxo-1H-1,4-benzodiazepin-3-yl] N′-[3-(isopropylsulphonylaminocarbonyl)phenyl] urea], the pIC50 in experiment [1] is 6.52; in experiment [3], 8.17.

Regarding `CN1C(=O)C(NC(=O)Nc2cccc(-c3cc(=O)c(O)co3)c2)N=C(C2CCCCC2)c2ccccc21` (racemic) [Example 43, N-[3(R,S)-5-Cyclohexyl-2,3-dihydro-1-methyl-2-oxo-1H-1,4-benzodiazepin-3-yl] N′-[3-(5-hydroxy-4-pyron-2-yl)phenyl] urea], the pIC50 in experiment [1] was 7.75; in experiment [3], 8.68.

For the compound `CN1C(=O)C(NC(=O)Nc2ccc3c(c2)C(=O)NS(=O)(=O)C3)N=C(C2CCCCC2)c2ccccc21` (racemic) [Example 44, N-[3(R,S)-5-Cyclohexyl-2,3-dihydro-1-methyl-2-oxo-1H-1,4-benzodiazepin-3-yl] N′-(3,4-dihydro-2,2-dioxo-4-oxo-1H-2,3-benzothiazin-6-yl] urea], the pIC50 in experiment [1] was 7.00; in experiment [3], 8.47.

Take `Cc1ccc(NC(=O)N[C@@H]2N=C(C3CCCCC3)c3ccccc3N(C)C2=O)cc1C(=O)NS(C)(=O)=O` [Example 34, N-[3(R)-5-Cyclohexyl-2,3-dihydro-1-methyl-2-oxo-1H-1,4-benzodiazepin-3-yl] N′-[4-methyl-3-(methylsulphonylaminocarbonyl)phenyl] urea]: the results for the pIC50 in experiment [1] and in experiment [3] were 5.77 and 8.64, respectively.

For the compound `CN1C(=O)[C@@H](NC(=O)Nc2cccc(C(=O)NS(=O)(=O)c3ccccc3)c2)N=C(C2CCCCC2)c2ccccc21` [Example 35, N-[3(S)-5-Cyclohexyl-2,3-dihydro-1-methyl-2-oxo-1H-1,4-benzodiazepin-3-yl] N′-[3-(phenylsulphonylaminocarbonyl)phenyl] urea], the pIC50 in experiment [1] was 7.99; in experiment [3], 7.29.

Values taken from patent EP0514133A1, “Benzodiazepine derivatives, compositions containing them and their use in therapy” (priority 1991, dated 1992).
